Data reported in patent US6642226B2, “Substituted phenyl-piperidine methanone compounds” (Hoffman-La Roche Inc., priority 2001, dated 2003).

Molecular target: T1, human NK1 receptor (Homo sapiens, UniProt P25103)
T1 construct: expressed in transfected cells; host or cells: CHO cells, Semliki virus expression system; membrane suspension
Assay: NK1 receptor binding, [3H]substance P displacement
Conditions: for Ki: human NK1 receptors in CHO cells, [3H]substance P 0.6 nM, read-out: pKi (affinity to the NK-1 receptor) (converted); for relative activity of enantiomer in the test for NK-1 binding: enantiomer fraction from Chiralpak AD separation of the racemate
Description: The affinity of test compounds for the NK1 receptor was evaluated at human NK1 receptors in CHO cells infected with the human NK1 receptor (using the Semliki virus expression system) and radiolabelled with [^3H]substance P (final concentration 0.6 nM). Binding assays were performed in HEPES buffer (50 mM, pH 7.4) containing BSA (0.04%) leupeptin (8 μg/ml), MnCl2 (3 mM) and phosphoramidon (2 μM). Binding assays consisted of 250 μl of membrane suspension (1.25×10^5 cells/assay tube), […] of buffer of displacing agent and 125 μl of [^3H]substance P. Displacement curves were determined with at least seven concentrations of the compound. The assay tubes were incubated for 60 min at room temperature after which time the tube contents were rapidly filtered under vacuum through GF/C filters presoaked for 60 min with PEI (0.3%) with 2×2 ml washes of HEPES buffer (50 mM, pH 7.4). The radioactivity retained on the filters was measured by scintillation counting. All assays were performed in triplicate in at least 2 separate experiments.

T1 sequence (P25103 whole entry): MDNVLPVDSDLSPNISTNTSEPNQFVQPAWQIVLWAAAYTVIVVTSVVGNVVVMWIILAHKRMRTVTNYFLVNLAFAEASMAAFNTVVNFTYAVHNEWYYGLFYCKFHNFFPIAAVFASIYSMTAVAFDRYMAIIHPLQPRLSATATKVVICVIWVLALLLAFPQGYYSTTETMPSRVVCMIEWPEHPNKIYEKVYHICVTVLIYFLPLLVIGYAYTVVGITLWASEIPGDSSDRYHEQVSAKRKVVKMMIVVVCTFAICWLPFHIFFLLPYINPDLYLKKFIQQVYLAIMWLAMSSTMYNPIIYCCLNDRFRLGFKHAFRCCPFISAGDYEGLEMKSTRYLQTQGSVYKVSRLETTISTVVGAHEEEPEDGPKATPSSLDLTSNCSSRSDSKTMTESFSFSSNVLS

SMILES	Ki [nM]	relative activity of enantiomer in the test for NK-1 binding
O=C(NC1CCCN(C2CCN(C(=O)c3cc(C(F)(F)F)cc(C(F)(F)F)c3)CC2c2ccc(F)cc2)C1)C1CC1 (mixture of isomers) [Example 77, (3RS,3′RS,4SR)- and (3RS,3′SR,4SR)-Cyclopropanecarboxylic acid [1′-(3,5-bis-trifluoromethyl-benzoyl)-3′-(4-fluoro-phenyl)-[1,4′]bipiperidinyl-3-yl]-amide]	2.95	
O=C(Cc1ccccc1)NC1CCCN(C2CCN(C(=O)c3cc(C(F)(F)F)cc(C(F)(F)F)c3)CC2c2ccc(F)cc2)C1 (mixture of isomers) [Example 79, (3RS,3′RS,4SR)- and (3RS,3′SR,4SR)-N-[1′-(3,5-Bis-trifluoromethyl-benzoyl)-3′-(4-fluoro-phenyl)-[1,4′]bipiperidinyl-3-yl]-2-phenyl-acetamide]	2.04	
NC1CCN(C2CCN(C(=O)c3cc(C(F)(F)F)cc(C(F)(F)F)c3)CC2c2ccc(F)cc2)C1 (mixture of isomers) [Example 118, (3RS,3′RS,4SR)- and (3RS,3′SR,4SR)-[4-(3-Amino-pyrrolidin-1-yl)-3-(4-fluoro-phenyl)-piperidin-1-yl]-(3,5-bis-trifluoromethyl-phenyl)-methanone]	1.78	
O=C(c1cc(C(F)(F)F)cc(C(F)(F)F)c1)N1CCC(N2CCC(OCC3CC3)CC2)C(c2ccc(Cl)cc2)C1 (racemic) [Example 66, Rac-cis-(3,5-Bis-trifluoromethyl-phenyl)-[3′-(4-chloro-phenyl)-4-cyclopropylmethoxy-[1,4′]bipiperidinyl-1′-yl]-methanone]	2.75	
O=C(c1cc(C(F)(F)F)cc(C(F)(F)F)c1)N1CC[C@H](N2CCNCC2)[C@H](c2ccc(F)cc2)C1 (racemic) [Example 82, Rac-cis-(3,5-Bis-trifluoromethyl-phenyl)-[3-(4-fluoro-phenyl)-4-piperazin-1-yl-piperidin-1-yl]-methanone]	2.09	
O=C(c1cc(C(F)(F)F)cc(C(F)(F)F)c1)N1CC[C@H](N2CCN(CC3CC3)CC2)[C@H](c2ccc(F)cc2)C1 (racemic) [Example 88, Rac-cis-(3,5-Bis-trifluoromethyl-phenyl)-[4-(4-cyclopropylmethyl-piperazin-1-yl)-3-(4-fluoro-phenyl)-piperidin-1-yl]-methanone]	3.16	
O=C(c1cc(C(F)(F)F)cc(C(F)(F)F)c1)N1CC[C@H](N2CCN(C(=O)C(F)(F)F)CC2)[C@H](c2ccc(Cl)cc2)C1 (racemic) [Example 106, Rac-cis-1-{4-[1-(3,5-Bis-trifluoromethyl-benzoyl)-3-(4-chloro-phenyl)-piperidin-4-yl]-piperazin-1-yl}-2,2,2-trifluoro-ethanone]	3.16	
CN(C)C1CCN(C2CCN(C(=O)c3cc(C(F)(F)F)cc(C(F)(F)F)c3)CC2c2ccc(Cl)cc2)CC1 (racemic) [Example 107, Rac-cis-(3,5-bis-trifluoromethyl-phenyl)-[3′-(4-chloro-phenyl)-4-dimethylamino-[1,4′]bipiperidinyl-1′-yl]-methanone]	0.631	
O=C(c1cc(C(F)(F)F)cc(C(F)(F)F)c1)N1CCC(N2CCC(N3CCOCC3)CC2)C(c2ccc(Cl)cc2)C1 (racemic) [Example 109, Rac-cis-(3,5-Bis-trifluoromethyl-phenyl)-[3′-(4-chloro-phenyl)-4-morpholin-4-yl-[1,4′]bipiperidinyl-1′-yl]-methanone]	1.62	
O=C(c1cc(C(F)(F)F)cc(C(F)(F)F)c1)N1CCC(N2CCC(NC3CC3)CC2)C(c2ccc(Cl)cc2)C1 (racemic) [Example 112, Rac-cis-(3,5-Bis-trifluoromethyl-phenyl)-[3′-(4-chloro-phenyl)-4-cydopropylamino-[1,4′]bipiperidinyl-1′-yl]-methanone]	0.794	
O=C(c1cc(C(F)(F)F)cc(C(F)(F)F)c1)N1CC[C@@H](N2CCN(C(=O)C3CC3)CC2)[C@@H](c2ccccc2)C1 (single isomer, unassigned) [Example 65, (+)-(3,5-Bis-trifluoromethyl-phenyl)-[4-(4-cyclopropanecarbonyl-piperazin-1-yl)-3-phenyl-piperidin-1-yl]-methanone]	1.41	more active enantiomer
O=C(c1cc(C(F)(F)F)cc(C(F)(F)F)c1)N1CC[C@@H](N2CCOCC2)[C@@H](c2ccc(Cl)cc2)C1 (single isomer, unassigned) [Example 70, (−)-(3,5-Bis-trifluoromethyl-phenyl)-[3-(4-chloro-phenyl)-4-morpholin-4-yl-piperidin-1-yl]-methanone]	2.57	more active enantiomer
O=C(c1cc(C(F)(F)F)cc(C(F)(F)F)c1)N1CC[C@@H](N2CCCC2)[C@@H](c2ccc(Cl)cc2)C1 (single isomer, unassigned) [Example 80, (−)-(3,5-Bis-trifluoromethyl-phenyl)-[3-(4-chloro-phenyl)-4-pyrrolidin-1-yl-piperidin-1-yl]-methanone]	3.16	more active enantiomer
CN1CCN([C@@H]2CCN(C(=O)c3cc(C(F)(F)F)cc(C(F)(F)F)c3)C[C@@H]2c2ccc(F)cc2)CC1 (single isomer, unassigned) [Example 90, (−)-(3,5-Bis-trifluoromethyl-phenyl)-[3-(4-fluoro-phenyl)-4-(4-methyl-piperazin-1-yl)-piperidin-1-yl]-methanone]	2.45	more active enantiomer
CN1CCN([C@@H]2CCN(C(=O)c3cc(C(F)(F)F)cc(C(F)(F)F)c3)C[C@@H]2c2ccccc2)CC1 (single isomer, unassigned) [Example 92, (−)-(3,5-Bis-trifluoromethyl-phenyl)-[3-phenyl-4-(4-methyl-piperazin-1-yl)-piperidin-1-yl]-methanone]	2.69	more active enantiomer
O=C(c1cc(C(F)(F)F)cc(C(F)(F)F)c1)N1CC[C@@H](N2CCN(C(=O)C(F)(F)F)CC2)[C@@H](c2ccc(Cl)cc2)C1 (single isomer, unassigned) [Example 108, (−)-1-{4-[1-(3,5-Bis-trifluoromethyl-benzoyl)-3-(4-chloro-phenyl)-piperidin-4-yl]-piperazin-1-yl}-2,2,2-trifluoro-ethanone]	1.29	more active enantiomer
O=C(c1cc(C(F)(F)F)cc(C(F)(F)F)c1)N1CC[C@@H](N2CCN(C3CC3)CC2)[C@@H](c2ccccc2)C1 (single isomer, unassigned) [Example 119, (−)-(3,5-Bis-trifluoromethyl-phenyl)-[4-(4-cyclopropyl-piperazin-1-yl)-3-phenyl-piperidin-1-yl]-methanone]	1	
O=C(c1cc(C(F)(F)F)cc(C(F)(F)F)c1)N1CCC(N2CCN(C(=O)C3CC3)CC2)C(c2ccc(F)cc2)C1 (single isomer, unassigned; (+)) [Example 85, (+)-(3,5-Bis-trifluoromethyl-phenyl)-[4-(4-cyclopropanecarbonyl-piperazin-1-yl)-3-(4-fluoro-phenyl)-piperidin-1-yl]-methanone]		more active enantiomer
CN1CCN(C2CCN(C(=O)c3cc(Cl)cc(Cl)c3)CC2c2ccccc2)CC1 (single isomer, unassigned; (+)) [Example 127, (+)-(3,5-Dichloro-phenyl)-[4-(4-methyl-piperazin-1-yl)-3-phenyl-piperidin-1-yl]-methanone]		more active enantiomer
Cc1ccc(C2CN(C(=O)c3cc(C(F)(F)F)cc(C(F)(F)F)c3)CCC2N2CCN(C(=O)C(F)(F)F)CC2)cc1 (single isomer, unassigned; (-)) [Example 100, (−)-{4-[1-(3,5-Bis-trifluoromethyl-benzoyl)-3-p-tolyl-piperidin-4-yl]-piperazin-1-yl}-2,2,2-trifluoro-ethanone]		more active enantiomer
CC(C)(C)OC(=O)N1CCN(C2CCN(C(=O)c3cc(C(F)(F)F)cc(C(F)(F)F)c3)CC2c2ccccc2)CC1 (single isomer, unassigned; (-)) [Example 101, (−)-4-[1-(3,5-Bis-trifluoromethyl-benzoyl)-3-phenyl-piperidin-4-yl]-piperazine-1-carboxylic Acid Tert-Butyl Ester]		more active enantiomer
Cc1ccc(C2CN(C(=O)c3cc(C(F)(F)F)cc(C(F)(F)F)c3)CCC2N2CCN(C(=O)C3CC3)CC2)cc1 (single isomer, unassigned; (-)) [Example 103, (−)-(3,5-Bis-trifluoromethyl-phenyl)-[4-(4-cyclopropanecarbonyl-piperazin-1-yl)-3-p-tolyl-piperidin-1-yl]-methanone]	2.14	
Cc1ccc(C2CN(C(=O)c3cc(C(F)(F)F)cc(C(F)(F)F)c3)CCC2N2CCN(C(=O)N3CCOCC3)CC2)cc1 (single isomer, unassigned; (-)) [Example 104, (−)-(3,5-Bis-trifluoromethyl-phenyl)-{4-[4-(morpholine-4-carbonyl)-piperazin-1-yl]-3-p-tolyl-piperidin-1-yl}-methanone]	2.34	
Cc1ccc(C2CN(C(=O)c3cc(C(F)(F)F)cc(C(F)(F)F)c3)CCC2N2CCN(C3CC3)CC2)cc1 (single isomer, unassigned; (-)) [Example 110, (−)-(3,5-Bis-trifluoromethyl-phenyl)-[4-(4-cyclopropyl-piperazin-1-yl)-3-p-tolyl-piperidin-1-yl]-methanone]	1.05	
